These results are taken from patent US11478483B2, “Method of treating hypertension” (Cipla Limited, priority 2017, dated 2022).

Where “and” joins values, the source holds several entries; their conditions need not be identical. Equal values may be shown once. Where a name gives a salt, the structure may show the parent alone.

The conditions of series [1]: after oral administration; cited from earlier work.
Series [2] has as its system rats with monocrotaline induced pulmonary arterial hypertension. Kind of series: Pulmonary arterial hypertension efficacy model: monocrotaline rat, hemodynamic evaluation. The class given is in vivo, Male Sprague-Dawley rats. As to conditions: for Right Ventricle (RV), Mean / Right Ventricle/Body Weight, Mean / Right Ventricular Pressure, Mean / Right Ventricular Systolic Pressure (RVSP), Mean: group mean; for Right Ventricle (RV), Mean / Right Ventricle/Body Weight, Mean / Right Ventricular Pressure, Mean / Right Ventricular Systolic Pressure (RVSP), Mean / Right Ventricle (RV) / Right Ventricle/Body Weight / Right Ventricular Pressure / Right Ventricular Systolic Pressure (RVSP): MCT 50 mg/kg s.c., Day 28; for Right Ventricle (RV) / Right Ventricle/Body Weight / Right Ventricular Pressure / Right Ventricular Systolic Pressure (RVSP): individual animals. On the procedure: The studies were conducted for hemodynamic evaluation of quetiapine in anesthetized sprague dawley rats treated with monocrotaline (“MCT”) to induce pulmonary arterial hypertension. Sildenafil was used as an internal control to compare the effects of Quetiapine.
The effects of Quetiapine were evaluated in rats with monocrotaline induced pulmonary arterial hypertension using sildenafil as standard care treatment. Male Sprague-Dawley rats were orally administered vehicle, Quetiapine (40 mg/kg, divided into a BID regimen given every day for 28 days starting on Day 1), or sildenafil (100 mg/kg, administered once daily) (n=12 in each group). Rats received a single injection of monocrotaline (50 mg/kg, s.c.) on Study Day 1. On the twenty-eighth day following monocrotaline dosing, the rats were anesthetized with ketamine/xylazine for terminal monitoring of pulmonary and systemic arterial pressures along with heart rate.
Vehicle (0.5% Methylcellulose+0.2% Tween 80 in deionized water, Quetiapine (40 mg/kg dib for 28 days; Sildenafil ([…], administered once daily)
Male Sprague-Dawley rats in groups I, II, III and IV and V were administered 50 mg/kg of body weight of Monocrotaline in DMSO subcutaneously to induce PAH on day 1. The DMSO group (Group I, negative control) received a single dose of DMSO subcutaneously on day 1. The vehicle group received 5 ml of vehicle every morning. The Quetiapine as well as sildenafil groups were orally administered Quetiapine (40 mg/kg, divided into a BID regimen given every day for 28 days starting on Day 1), or sildenafil (100 mg/kg, administered once daily). On the twenty-eighth day after monocrotaline dosing, the rats were anesthetized with ketamine/xylazine for terminal monitoring of pulmonary and systemic arterial pressures along with heart rate.

[3] abbreviates: Quetiapine 40 mg/Kg bid p.o. for 28 days.
The mark [4] stands for this setting: Sildenafil 100 mg/kg p.o. once daily.

For the compound `OCCOCCN1CCN(C2=Nc3ccccc3Sc3ccccc32)CC1` [Quetiapine fumarate], in series [1], the “time to reach peak plasma concentrations” value is 1.5 h.

In the case of `OCCOCCN1CCN(C2=Nc3ccccc3Sc3ccccc32)CC1` [Quetiapine], in series [2] (MCT rats, Quetiapine 40 mg/kg bid vs Sildenafil 100 mg/kg), the “activity in controlling or reducing PAH compared with Sildenafil” value is on record as “comparable among with Sildenafil activity”. In series [2] (after 28 days, Quetiapine 40 mg/kg bid, MCT rats), the “systolic and mean pulmonary arterial pressures compared to the vehicle group” value is “differences in systolic and mean pulmonary arterial pressures”. Moreover, in series [2] (setting [3]), the “Right Ventricle (RV), Mean” value stood at 0.276 g; the “Right Ventricle/Body Weight, Mean” value is recorded as 0.0008 g; the “Right Ventricular Pressure, Mean” value is recorded as 22.414 mmHg; the “Right Ventricular Systolic Pressure (RVSP), Mean” value is recorded as 47.511 mmHg. Further, in series [2] (setting [3]), the “Right Ventricle (RV)” value was 0.336 g and 0.337 g and 0.312 g and 0.260 g and 0.193 g and 0.353 g and 0.225 g and 0.276 g and 0.190 g; the “Right Ventricle/Body Weight” value was 0.0010 g (3×) and 0.0007 g and 0.0006 g (3×) and 0.0012 g and 0.0008 g; the “Right Ventricular Pressure” value was 27.940 mmHg and 21.646 mmHg and 22.967 mmHg and 16.792 mmHg and 19.956 mmHg and 24.109 mmHg and 28.929 mmHg and 18.440 mmHg and 20.951 mmHg; the “Right Ventricular Systolic Pressure (RVSP)” value is 54.140 mmHg and 47.463 mmHg and 43.052 mmHg and 36.213 mmHg and 41.515 mmHg and 68.747 mmHg and 54.503 mmHg and 37.045 mmHg and 44.925 mmHg.

Take `CCCc1nn(C)c2c(=O)[nH]c(-c3cc(S(=O)(=O)N4CCN(C)CC4)ccc3OCC)nc12` [Sildenafil]: in series [2] (setting [4]), the “Right Ventricle (RV), Mean” value amounted to 0.247 g; the “Right Ventricle/Body Weight, Mean” value was found to be 0.0006 g; the “Right Ventricular Pressure, Mean” value was determined as 13.929 mmHg; the “Right Ventricular Systolic Pressure (RVSP), Mean” value came to 29.648 mmHg. In series [2] (setting [4]), the “Right Ventricle (RV)” value was 0.236 g and 0.440 g and 0.228 g and 0.207 g and 0.232 g and 0.308 g and 0.229 g and 0.261 g and 0.083 g; the “Right Ventricle/Body Weight” value was 0.0007 g (3×) and 0.0009 g and 0.0006 g (4×) and 0.0003 g; the “Right Ventricular Pressure” value was 16.804 mmHg and 11.481 mmHg and 15.226 mmHg and 11.673 mmHg and 14.427 mmHg and 14.139 mmHg and 16.310 mmHg and 12.947 mmHg and 12.352 mmHg; the “Right Ventricular Systolic Pressure (RVSP)” value was 33.864 mmHg and 23.627 mmHg and 31.322 mmHg and 24.486 mmHg and 29.450 mmHg and 31.316 mmHg and 32.922 mmHg and 34.262 mmHg and 25.579 mmHg.
